From the supplement of paper PMC10307832

Columns and labels:
Experiment in all cases: relative viability (nuclei count vs DMSO), 5 days (fraction); higher = more cells survive
Apatinib + Tozasertib = compound: N#CC1(c2ccc(NC(=O)c3cccnc3NCc3ccncc3)cc2)CCCC1 [Apatinib] + Cc1cc(Nc2cc(N3CCN(C)CC3)nc(Sc3ccc(NC(=O)C4CC4)cc3)n2)n[nH]1 [Tozasertib] (partner 0.1 µM)
Procedure, shortened: (§1)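 Lung cancer cell lines were seeded in 1536-well plates and dosed by pin tool the next day, with either a single drug or a fixed anchor-drug dose combined with five library-drug doses (not always all listed) spaced in √10 steps. Five days later, one step fixed the cells and stained their nuclei (final 0.05% Triton X-100, 1% formaldehyde, 1 ug/ml Hoechst), and nuclei were counted on 4× images. Relative viability is the nuclei count in treated wells divided by the count in vehicle wells, and each value is the median of duplicate plates.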

Metformin + Foretinib = compound: CN(C)C(=N)NC(=N)N [Metformin] + COc1cc2c(Oc3ccc(NC(=O)C4(C(=O)Nc5ccc(F)cc5)CC4)cc3F)ccnc2cc1OCCCN1CCOCC1 [Foretinib] (partner 0.25 µM)
Procedure, shortened: as §1

Metformin + Pictilisib = compound: CN(C)C(=N)NC(=N)N [Metformin] + CS(=O)(=O)N1CCN(Cc2cc3nc(-c4cccc5[nH]ncc45)nc(N4CCOCC4)c3s2)CC1 [Pictilisib] (partner 1 µM)
Procedure, shortened: as §1

Apatinib + Olaparib = compound: N#CC1(c2ccc(NC(=O)c3cccnc3NCc3ccncc3)cc2)CCCC1 [Apatinib] + O=C(c1cc(Cc2n[nH]c(=O)c3ccccc23)ccc1F)N1CCN(C(=O)C2CC2)CC1 [Olaparib] (partner 8 µM)
Procedure, shortened: as §1

Row | Cell Line | relative viability (Apatinib + Tozasertib; first compound 0.08 µM) | relative viability (Apatinib + Tozasertib; first compound 0.253 µM) | relative viability (Apatinib + Tozasertib; first compound 0.8 µM) | relative viability (Apatinib + Tozasertib; first compound 2.53 µM) | relative viability (Apatinib + Tozasertib; first compound 8 µM) | relative viability (Metformin + Foretinib; first compound 10 µM) | relative viability (Metformin + Foretinib; first compound 31.62 µM) | relative viability (Metformin + Foretinib; first compound 100 µM) | relative viability (Metformin + Foretinib; first compound 316.23 µM) | relative viability (Metformin + Foretinib; first compound 1000 µM) | relative viability (Metformin + Pictilisib; first compound 10 µM) | relative viability (Metformin + Pictilisib; first compound 31.62 µM) | relative viability (Metformin + Pictilisib; first compound 100 µM) | relative viability (Metformin + Pictilisib; first compound 316.23 µM) | relative viability (Metformin + Pictilisib; first compound 1000 µM) | relative viability (Apatinib + Olaparib; first compound 0.08 µM) | relative viability (Apatinib + Olaparib; first compound 0.253 µM) | relative viability (Apatinib + Olaparib; first compound 0.8 µM) | relative viability (Apatinib + Olaparib; first compound 2.53 µM) | relative viability (Apatinib + Olaparib; first compound 8 µM)
1 | EMC-BAC-2 | 0.334 | 0.307 | 0.245 | 0.229 | 0.194 | 1.03 | 1.1 | 1.09 | 0.976 | 1.09 | 0.475 | 0.536 | 0.528 | 0.523 | 0.523 | 0.57 | 0.507 | 0.44 | 0.363 | 0.319
2 | NCI-H322M | 0.454 | 0.426 | 0.437 | 0.441 | 0.503 | 1.14 | 1.03 | 1.05 | 1.1 | 0.935 | 0.471 | 0.52 | 0.491 | 0.469 | 0.43 | 0.791 | 0.759 | 0.686 | 0.772 | 0.805
3 | NCI-H650 | 0.769 | 0.777 | 0.724 | 0.644 | 0.486 | 1.18 | 1.31 | 1.23 | 1.24 | 1.18 | 0.96 | 1.01 | 1.12 | 1.06 | 0.978 | 0.35 | 0.458 | 0.439 | 0.365 | 0.334
4 | NCI-H2126 | 0.953 | 0.861 | 0.797 | 0.709 | 0.607 | 1.12 | 1.18 | 1.22 | 0.862 | 1.15 | 0.519 | 0.474 | 0.514 | 0.472 | 0.485 | 0.973 | 0.861 | 0.88 | 0.845 | 0.904
5 | NCI-H1395 | 0.734 | 0.832 | 0.722 | 0.661 | 0.52 | 0.965 | 1 | 1.04 | 0.883 | 0.997 | 0.64 | 0.728 | 0.653 | 0.81 | 0.593 | 0.485 | 0.459 | 0.488 | 0.452 | 0.395
6 | NCI-H1355 | 0.576 | 0.611 | 0.474 | 0.33 | 0.217 | 0.941 | 1.05 | 0.998 | 0.972 | 0.99 | 0.503 | 0.439 | 0.438 | 0.435 | 0.504 | 0.787 | 0.798 | 0.745 | 0.647 | 0.616
7 | NCI-H1792 |  |  |  |  |  |  |  |  |  |  |  | 0.398 | 0.393 | 0.47 | 0.428 | 0.416 | 0.588 | 0.341 | 0.224 | 0.216
8 | NCI-H596 | 1.05 | 0.965 | 0.854 | 0.705 | 0.631 | 0.832 | 0.855 | 0.85 | 0.861 | 0.89 | 0.431 | 0.479 | 0.468 | 0.452 | 0.421 | 0.822 | 0.73 | 0.722 | 0.65 | 0.634
9 | NCI-H23 | 0.374 | 0.516 | 0.339 | 0.243 | 0.197 | 0.925 | 1.1 | 1.01 | 0.953 | 1.08 | 0.505 | 0.604 | 0.527 | 0.614 | 0.654 | 0.305 | 0.322 | 0.301 | 0.316 | 0.238
10 | HCC-15 | 0.376 | 0.48 | 0.357 | 0.248 | 0.163 |  | 1.06 | 1.1 | 0.905 | 0.911 | 0.625 | 0.789 | 0.746 | 0.75 | 0.823 | 0.657 | 0.76 | 0.686 | 0.615 | 0.54
11 | HCC-44 | 1.23 | 1.12 | 0.75 | 0.844 | 0.494 |  |  |  |  |  | 0.682 | 0.771 | 0.734 | 0.63 | 0.7 | 0.989 | 1 | 0.924 | 0.97 | 0.971
12 | COR-L23 | 0.263 | 0.165 | 0.149 | 0.143 | 0.129 | 0.88 | 0.861 | 0.863 | 0.836 | 0.975 | 0.756 | 0.886 | 0.754 | 0.707 | 0.759 | 0.355 | 0.377 | 0.324 | 0.273 | 0.286
13 | NCI-H1563 |  |  |  |  |  | 0.99 | 1.02 | 1.09 | 1.01 | 1.05 | 0.605 | 0.651 | 0.62 | 0.624 | 0.646 |  |  |  |  | 
14 | NCI-H1703 |  |  |  |  |  | 0.497 | 0.504 | 0.549 | 0.474 | 0.496 | 0.291 | 0.309 | 0.29 | 0.291 | 0.226 | 0.512 | 0.21 | 0.173 | 0.159 | 0.138
15 | NCI-H1299 |  |  |  |  |  | 1.09 | 1.12 | 1.14 | 1.11 | 1.13 | 0.834 | 0.98 | 0.9 | 0.645 | 0.479 | 1.03 | 1.01 | 0.927 | 0.873 | 0.638
16 | NCI-H522 | 0.48 | 0.487 | 0.693 | 0.504 | 0.567 |  |  |  |  |  |  |  |  |  |  | 0.667 | 0.644 | 0.615 | 0.692 | 0.584
17 | NCI-H1623 | 0.45 | 0.454 | 0.451 | 0.417 | 0.407 | 0.799 | 0.811 | 1.02 | 1.01 | 0.864 |  |  |  |  |  |  |  |  |  | 
18 | NCI-H2342 | 0.527 | 0.492 | 0.53 | 0.455 | 0.373 | 0.972 | 1.15 | 1.07 | 1 | 1.21 |  |  |  |  |  | 0.419 | 0.477 | 0.457 | 0.438 | 0.368
19 | A549 |  |  |  |  |  | 0.867 | 0.9 | 0.9 | 0.853 | 0.944 | 0.428 | 0.517 | 0.553 | 0.464 | 0.0878 | 0.329 | 0.382 | 0.414 | 0.367 | 0.302
20 | EBC-1 |  |  |  |  |  | 0.0914 | 0.09 |  | 0.103 | 0.0951 | 0.508 | 0.444 | 0.467 | 0.306 | 0.313 | 0.76 | 0.698 | 0.65 | 0.588 | 0.472
